Test results taken from patent publication US20170253601A1, “Substituted Pyrrolidine Compounds” (EPIZYME, INC., priority 2014, published 2017).
Read-outs that look alike come from different tables or passages of the source.

Target: T1, SMYD2 (Homo sapiens, UniProt Q9NRG4)
T1 construct: Full length SMYD2 (NP 064582.2) was cloned; His6 (N, cleaved yes); FLAG (N); made in house; host or cells: Sf9 insect cells
Experiment: SMYD2 Biochemical Assay (3H-SAM, biotinylated peptide substrate, Flashplate)
Conditions: average of n = 1 to n = 50, read-out: SMYD2 Biochem IC50
Text: S-adenosylmethionine (SAM), S-adenosylhomocysteine (SAH), bicine, Tween20, dimethylsulfoxide (DMSO), bovine skin gelatin (BSG), and Tris(2-carboxyethyl)phosphine hydrochloride (TCEP) were purchased from Sigma-Aldrich at the highest level of purity possible. ^3H-SAM was purchase from American Radiolabeled Chemicals with a specific activity of 80 Ci/mmol. 384-well streptavidin Flashplates were purchased from PerkinElmer.
Peptide was synthesized with a N-terminal linker-affinity tag motif and a C-terminal amide cap by 21st Century Biochemicals. The peptide was high-performance liquid chromatography (HPLC) purified to greater than 95% purity and confirmed by liquid chromatography mass spectrometry (LC-MS). The sequence was […](K-Biot)-amide. (SEQ ID No: 3)
Full length SMYD2 (NP 064582.2) was cloned into a pFastbac-Htb-lic vector with an N-terminal His6 tag and FLAG tag, preceded by a TEV protease cleavage site. The protein was expressed in Sf9 insect cells. Cells were resuspended in lysis buffer (25 mM HEPES-NaOH, pH 7.5, 200 mM NaCl, 5% glycerol, and 5 mM β-ME) and lysed by sonication. The protein was purified by Ni-NTA (Qiagen), followed by TEV cleavage to remove the His6 tag, subtractive Ni-NTA (Qiagen), and gel filtration chromatography using an […] (GE Healthcare). Purified protein was stored in 20 mM Tris-HCl, pH 8.0, 100 mM NaCl, and 1 mM TCEP.
The assays were all performed in a buffer consisting of 20 mM Bicine (pH=7.6), 1 mM TCEP, 0.005% Bovine Skin Gelatin, and 0.002% Tween20, prepared on the day of use. Compounds in 100% DMSO (1 ul) were spotted into a polypropylene 384-well V-bottom plates (Greiner) using a Platemate Plus outfitted with a 384-channel head (Thermo Scientific). DMSO (1 ul) was added to Columns 11, 12, 23, 24, rows A-H for the maximum signal control and 1 ul of SAH, a known product and inhibitor of SMYD2, was added to columns 11, 12, 23, 24, rows I-P for the minimum signal control. A cocktail (40 ul) containing the SMYD2 enzyme was added by Multidrop Combi (Thermo-Fisher). The compounds were allowed to incubate with SMYD2 for 30 min at room temperature, then a cocktail (10 ul) containing ^3H-SAM and peptide was added to initiate the reaction (final volume=51 ul). The final concentrations of the components were as follows: SMYD2 was 1.5 nM, ^3H-SAM was 10 nM, and peptide was 60 nM, SAH in the minimum signal control wells was 1000 uM, and the DMSO concentration was 2%. The assays were stopped by the addition of non-radioactive SAM (10 ul) to a final concentration of 600 uM, which dilutes the ^3H-SAM to a level where its incorporation into the peptide substrate is no longer detectable. 50 ul of the reaction in the 384-well polypropylene plate was then transferred to a 384-well Flashplate and the biotinylated peptides were allowed to bind to the streptavidin surface for at least 1 hour before being washed three times with 0.1% Tween20 in a Biotek ELx405 plate washer. The plates were then read in a PerkinElmer TopCount plate reader to measure the quantity of ^3H-labeled peptide bound to the Flashplate surface, measured as disintegrations per minute (dpm) or alternatively, referred to as counts per minute (cpm).
Where dpm=disintegrations per minute, cmpd=signal in assay well, and min and max are the respective minimum and maximum signal controls.
Where top and bottom are the normally allowed to float, but may be fixed at 100 or 0 respectively in a 3-parameter fit. The Hill Coefficient normally allowed to float but may also be fixed at 1 in a 3-parameter fit. I is the compound concentration.
SMYD2 biochemical assay data for representative Compounds of the Disclosure are presented in Tables 1-3 in the column titled “SMYD2 Biochem IC50 (μM).”

T1 sequence (Q9NRG4 whole entry): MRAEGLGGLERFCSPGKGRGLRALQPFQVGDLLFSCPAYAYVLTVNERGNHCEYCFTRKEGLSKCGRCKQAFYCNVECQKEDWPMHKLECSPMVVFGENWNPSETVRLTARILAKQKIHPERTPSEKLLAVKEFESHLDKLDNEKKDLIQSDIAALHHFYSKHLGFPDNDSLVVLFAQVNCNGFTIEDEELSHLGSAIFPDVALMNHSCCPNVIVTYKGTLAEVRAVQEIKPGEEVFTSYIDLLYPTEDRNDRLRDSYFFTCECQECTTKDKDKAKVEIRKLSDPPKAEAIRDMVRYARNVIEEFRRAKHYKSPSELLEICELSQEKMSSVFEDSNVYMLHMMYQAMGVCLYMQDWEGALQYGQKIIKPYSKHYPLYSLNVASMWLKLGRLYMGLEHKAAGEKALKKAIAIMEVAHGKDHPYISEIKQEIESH

| IC50 (Table 1) [µM] | IC50 (Table 2) [µM] | Compound |
| --- | --- | --- |
| 19.2 |  | C[C@H]1CN(C2CC2)C[C@H]1NC(=O)c1cc(C2CC2)on1 (racemic) [Cpd. No. 45, (±)-cis-5-cyclopropyl-N-(1-cyclopropyl-4-methylpyrrolidin-3-yl)isoxazole-3-carboxamide] |
| 2.75 |  | C[C@@H]1CN(C2CC2)C[C@H]1NC(=O)c1cc(C2CC2)on1 (racemic) [Cpd. No. 46, (±)-trans-5-cyclopropyl-N-(1-cyclopropyl-4-methylpyrrolidin-3-yl)isoxazole-3-carboxamide] |
| 8.46 |  | O=C(N[C@@H]1CN(C2CC2)C[C@@H]1CO)c1cc(C2CC2)on1 (racemic) [Cpd. No. 48, (±)-cis-5-cyclopropyl-N-(1-cyclopropyl-4-(hydroxymethyl)pyrrolidin-3-yl)isoxazole-3-carboxamide] |
| 15.4 |  | C[C@H]1CNC[C@H]1NC(=O)c1cc(C2CC2)on1 (racemic) [compound 38, (±)-cis-5-cyclopropyl-N-(4-methylpyrrolidin-3-yl)isoxazole-3-carboxamide] |
| 33.6 |  | C[C@@H]1CN(C)C[C@H]1NC(=O)c1cc(C2CC2)on1 (racemic) [compound 39] |
| > 50 |  | CN1C[C@@H](O)[C@H](NC(=O)c2cc(C3CC3)on2)C1 (racemic) [compound 40, (±)-trans-5-cyclopropyl-N-(-4-hydroxy-1-methylpyrrolidin-3-yl)isoxazole-3-carboxamide] |
| > 50 |  | C[C@@H]1CNC[C@H]1NC(=O)c1cc(C2CC2)on1 (racemic) [compound 43, (±)-trans-5-cyclopropyl-N-(4-methyl-pyrrolidin-3-yl)isoxazole-3-carboxamide] |
| 4.6 |  | C[C@H]1CN(C)C[C@H]1NC(=O)c1cc(C2CC2)on1 (racemic) [compound 44] |
| > 50 |  | O=C(N[C@@H]1CN(C2CC2)C[C@H]1O)c1cc(C2CC2)on1 (racemic) [compound 47, (±)-trans-5-cyclopropyl-N-(1-cyclopropyl-4-hydroxypyrrolidin-3-yl)isoxazole-3-carboxamide] |
| > 50 |  | O=C(N[C@@H]1C[C@H](CO)N(C2CC2)C1)c1cc(C2CC2)on1 (racemic) [compound 49, (±)-cis-5-cyclopropyl-N-(1-cyclopropyl-5-(hydroxy-methyl)pyrrolidin-3-yl)isoxazole-3-carboxamide] |
| > 50 |  | C[C@H]1CN(C2CC2)C[C@@H]1NC(=O)c1cc(C2CC2)no1 (racemic) [compound 50, (±)-trans-3-cyclopropyl-N-(1-cyclopropyl-4-methylpyrrolidin-3-yl)isoxazole-5-carboxamide] |
| 7.9 |  | C[C@H]1CN(C2CC2)C[C@H]1NC(=O)c1cc(C2CC2)no1 (racemic) [compound 51, (±)-cis-3-cyclopropyl-N-(1-cyclopropyl-4-methylpyrrolidin-3-yl)isoxazole-5-carboxamide] |
| > 50 |  | CCc1cc(C(=O)N[C@H]2CN(C3CC3)C[C@@H]2C)no1 (racemic) [compound 52, (±)-trans-N-(1-cyclopropyl-4-methylpyrrolidin-3-yl)-5-ethylisoxazole-3-carboxamide] |
| > 50 |  | C[C@H]1CN(C2CC2)C[C@@H]1NC(=O)c1cc(C2CCCC2)on1 (racemic) [compound 53, (±)-trans-5-cyclopentyl-N-(1-cyclopropyl-4-methylpyrrolidin-3-yl)isoxazole-3-carboxamide] |
| > 50 |  | C[C@H]1CN(C2CC2)C[C@H]1NC(=O)c1cc(C2CCCC2)on1 (racemic) [compound 54, (±)-cis-5-cyclopentyl-N-(1-cyclopropyl-4-methylpyrrolidin-3-yl)isoxazole-3-carboxamide] |
|  | > 50 | C[C@H]1C[C@@H](NC(=O)c2cc(C3CC3)on2)CN1 (racemic) [compound 63, (±)-cis 5-cyclopropyl-N-(5-methylpyrrolidin-3-yl)isoxazole-3-carboxamide] |
|  | > 50 | C[C@H]1C[C@@H](NC(=O)c2cc(C3CC3)on2)CN1C (racemic) [compound 64, (±)-cis-5-cyclopropyl-N-(1,5-dimethylpyrrolidin-3-yl)isoxazole-3-carboxamide] |
|  | 2.4 | CC(C)N1C[C@H](C)[C@H](NC(=O)c2cc(C3CC3)on2)C1 (racemic) [compound 65, (±)-cis-5-cyclopropyl-N-(1-isopropyl-4-methylpyrrolidin-3-yl)isoxazole-3-carboxamide] |
|  | > 50 | C[C@H]1CN(S(C)(=O)=O)C[C@H]1NC(=O)c1cc(C2CC2)on1 (racemic) [compound 66, (±)-cis-5-cyclopropyl-N-(4-methyl-1-(methyl-sulfonyl)pyrrolidin-3-yl)isoxazole-3-carboxamide] |
|  | > 50 | C[C@@H]1CN(S(=O)(=O)C2CCNCC2)C[C@@H]1NC(=O)c1cc(C2CC2)on1 (racemic) [compound 67, (±)-cis 5-cyclopropyl-N-(4-methyl-1-(piperidin-4-ylsulfonyl)pyrrolidin-3-yl)isoxazole-3-carboxamide] |
|  | > 50 | C[C@@H]1CN(C(=O)CN)C[C@@H]1NC(=O)c1cc(C2CC2)on1 (racemic) [compound 68, (±)-cis-5-cyclopropyl-N-(1-glycyl-4-methylpyrrolidin-3-yl)isoxazole-3-carboxamide] |
|  | > 50 | C[C@@H]1CN(C(=O)CO)C[C@@H]1NC(=O)c1cc(C2CC2)on1 (racemic) [compound 69, (±)-cis-5-cyclopropyl-N-(1-(2-hydroxyacetyl)-4-methylpyrrolidin-3-yl)isoxazole-3-carboxamide] |
|  | > 50 | C[C@H]1CN(C(=O)C2CCNCC2)C[C@H]1NC(=O)c1cc(C2CC2)on1 (racemic) [compound 70, (±)-cis-5-cyclopropyl-N-(4-methyl-1-(piperidine-4-carbonyl)pyrrolidin-3-yl)isoxazole-3-carboxamide] |
|  | > 50 | C[C@@H]1CN(C(=O)CC2CCNCC2)C[C@@H]1NC(=O)c1cc(C2CC2)on1 (racemic) [compound 71, (±)-cis-5-cyclopropyl-N-(4-methyl-1-(2-(piperidin-4-yl)acetyl)pyrrolidin-3-yl)isoxazole-3-carboxamide] |
|  | 18.4 | C[C@@H]1CN(C2CCCCC2)C[C@@H]1NC(=O)c1cc(C2CC2)on1 (racemic) [compound 72, (±)-cis-N-(1-cyclohexyl-4-methylpyrrolidin-3-yl)-5-cyclopropylisoxazole-3-carboxamide] |
|  | 40.7 | C[C@@H]1CN(C2CCOCC2)C[C@@H]1NC(=O)c1cc(C2CC2)on1 (racemic) [compound 73, (±)-cis-5-cyclopropyl-N-(4-methyl-1-(tetrahydro-2H-pyran-4-yl)pyrrolidin-3-yl)isoxazole-3-carboxamide] |
|  | 14 | C[C@@H]1CN(C2CCS(=O)(=O)CC2)C[C@@H]1NC(=O)c1cc(C2CC2)on1 (racemic) [compound 74, (±)-cis-5-cyclopropyl-N-(1-(1,1-dioxidotetrahydro-2H-thiopyran-4-yl)-4-methylpyrrolidin-3-yl)isoxazole-3-carboxamide] |
|  | 5 | C[C@H]1CN(C2CCCC2)C[C@H]1NC(=O)c1cc(C2CC2)on1 (racemic) [compound 75, (±)-cis-N-(1-cyclopentyl-4-methylpyrrolidin-3-yl)-5-cyclopropylisoxazole-3-carboxamide] |
|  | > 50 | C[C@H]1CN(CCS(C)(=O)=O)C[C@H]1NC(=O)c1cc(C2CC2)on1 (racemic) [compound 77, (±)-cis-cyclopropyl-N-((3S)-4-methyl-1-(2-(methyl-sulfonyl)ethyl)pyrrolidin-3-yl)isoxazole-3-carboxamide] |
